Assay [1] deals with Sodium channel protein type 10 subunit alpha (Homo sapiens, UniProt Q9Y5Y9). Kind of assay: In Vitro Assay (Protocol 1). The method, then:
(§1) Compounds of Formula (I), were diluted in eight concentrations in the extracellular solution composed of physiological saline, buffered with HEPES (mM): NaCl, 137; KCl, 4; CaCl2, 3.8; MgCl2, 1; HEPES, 10; Glucose, 10; pH 7.4. The […], 50; CsF, 90; MgCl2, 5; EGTA, 5; HEPES, 10; pH 7.2. The duration of exposure of each compound with the cells expressing Nav 1.7 or Nav 1.8 was at least five minutes and the assays were performed at room temperature.The measurements of the sodium currents of Nav 1.8 and Nav 1.7 were obtained using the voltage protocols described below:Protocol 1: A holding voltage of −90 mV was established followed by a voltage phase of 200 ms to −120 mV, followed by a voltage step of 10 mV for 1 second for Nav 1.8 or 0 mV for Nav 1.7, followed by a step of −100 mV for 20 ms, followed by a step of 20 ms for 10 mV for Nav 1.8 or 0 mV for Nav 1.7 (TP1A) before returning to the holding voltage of −90 mV.Protocol 2: A holding voltage of −100 mV was established followed by an inactivation voltage step at −40 mV for 8 seconds, followed by a −100 mV step for […], followed by a 20 ms step for 10 mV for Nav 1.8 or 0 mV for Nav 1.7 (TP1A) before returning to the holding voltage of −100 mV.Protocols were repeated at a frequency of 0.1 Hz and current amplitude was quantified over the TP1A phase log. The variation in the peak amplitude of the current was evaluated according to the Formula described below, after exposure of the cells expressing the channels, at each concentration of the different compounds:%Block=(1-(ITP1A,molecule/ITP1A,basal)×100%,where |TP1A, basal, and |TP1A, molecule represent the entry peaks of sodium currents into TP1A prior to exposure to the compound and in the presence of the compound, respectively.

The target in assay [2] is Sodium channel protein type 9 subunit alpha (Homo sapiens, UniProt Q15858). Kind of assay: In Vitro Assay (Protocol 1). The method, then:
as §1

pIC50: −log10 of the molar value.

Sequence of Sodium channel protein type 9 subunit alpha (Q15858 whole entry): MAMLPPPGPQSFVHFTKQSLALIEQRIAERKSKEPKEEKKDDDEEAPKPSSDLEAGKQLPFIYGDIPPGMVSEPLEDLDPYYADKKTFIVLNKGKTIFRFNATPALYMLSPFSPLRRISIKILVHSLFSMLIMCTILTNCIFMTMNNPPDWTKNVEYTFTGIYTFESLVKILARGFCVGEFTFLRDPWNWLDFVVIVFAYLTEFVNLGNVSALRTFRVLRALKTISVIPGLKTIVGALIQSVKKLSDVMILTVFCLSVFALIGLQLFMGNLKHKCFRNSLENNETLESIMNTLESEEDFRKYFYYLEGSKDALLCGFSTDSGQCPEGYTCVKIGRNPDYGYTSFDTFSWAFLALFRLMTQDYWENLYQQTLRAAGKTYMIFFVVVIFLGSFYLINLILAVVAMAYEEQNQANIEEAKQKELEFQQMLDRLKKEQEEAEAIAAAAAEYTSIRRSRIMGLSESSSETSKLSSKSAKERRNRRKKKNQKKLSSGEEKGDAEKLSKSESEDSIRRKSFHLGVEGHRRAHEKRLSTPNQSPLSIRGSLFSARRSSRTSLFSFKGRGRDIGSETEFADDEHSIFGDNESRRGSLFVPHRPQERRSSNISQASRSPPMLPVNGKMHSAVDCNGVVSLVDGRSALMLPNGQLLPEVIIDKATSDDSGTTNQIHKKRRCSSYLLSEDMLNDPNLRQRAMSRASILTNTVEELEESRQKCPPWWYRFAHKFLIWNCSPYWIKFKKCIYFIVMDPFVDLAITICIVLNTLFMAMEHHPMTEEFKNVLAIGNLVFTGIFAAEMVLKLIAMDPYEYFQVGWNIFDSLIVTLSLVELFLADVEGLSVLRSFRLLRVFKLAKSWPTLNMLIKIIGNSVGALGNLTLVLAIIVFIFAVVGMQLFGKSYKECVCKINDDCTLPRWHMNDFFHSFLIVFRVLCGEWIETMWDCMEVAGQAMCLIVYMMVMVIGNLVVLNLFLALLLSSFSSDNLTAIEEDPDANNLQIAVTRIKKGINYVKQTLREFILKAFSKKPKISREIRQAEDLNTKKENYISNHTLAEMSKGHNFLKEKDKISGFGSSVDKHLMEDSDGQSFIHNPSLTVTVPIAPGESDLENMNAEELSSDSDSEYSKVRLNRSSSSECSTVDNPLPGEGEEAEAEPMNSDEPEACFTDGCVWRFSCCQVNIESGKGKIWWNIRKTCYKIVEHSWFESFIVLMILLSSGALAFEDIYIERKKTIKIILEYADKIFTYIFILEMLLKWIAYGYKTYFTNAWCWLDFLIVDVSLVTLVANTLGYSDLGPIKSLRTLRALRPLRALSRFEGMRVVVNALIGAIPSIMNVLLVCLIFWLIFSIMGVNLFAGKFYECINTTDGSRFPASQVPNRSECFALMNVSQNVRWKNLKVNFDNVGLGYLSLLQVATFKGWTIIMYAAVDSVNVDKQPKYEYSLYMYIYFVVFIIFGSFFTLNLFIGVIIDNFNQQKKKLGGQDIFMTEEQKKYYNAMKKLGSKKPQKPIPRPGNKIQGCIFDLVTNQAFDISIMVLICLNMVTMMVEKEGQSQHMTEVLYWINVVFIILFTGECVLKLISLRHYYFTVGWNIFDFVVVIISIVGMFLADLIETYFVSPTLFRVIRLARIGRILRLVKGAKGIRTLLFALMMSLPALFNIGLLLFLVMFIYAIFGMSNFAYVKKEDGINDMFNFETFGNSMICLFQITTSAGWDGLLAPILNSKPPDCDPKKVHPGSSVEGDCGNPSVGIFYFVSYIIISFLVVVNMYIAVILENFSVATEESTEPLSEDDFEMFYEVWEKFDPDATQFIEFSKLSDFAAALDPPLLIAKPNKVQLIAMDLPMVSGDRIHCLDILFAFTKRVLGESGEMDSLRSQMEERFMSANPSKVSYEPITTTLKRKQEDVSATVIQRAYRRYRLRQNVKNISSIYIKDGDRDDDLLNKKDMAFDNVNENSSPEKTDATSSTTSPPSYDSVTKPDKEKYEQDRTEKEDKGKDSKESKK
Sequence of Sodium channel protein type 10 subunit alpha (Q9Y5Y9 whole entry): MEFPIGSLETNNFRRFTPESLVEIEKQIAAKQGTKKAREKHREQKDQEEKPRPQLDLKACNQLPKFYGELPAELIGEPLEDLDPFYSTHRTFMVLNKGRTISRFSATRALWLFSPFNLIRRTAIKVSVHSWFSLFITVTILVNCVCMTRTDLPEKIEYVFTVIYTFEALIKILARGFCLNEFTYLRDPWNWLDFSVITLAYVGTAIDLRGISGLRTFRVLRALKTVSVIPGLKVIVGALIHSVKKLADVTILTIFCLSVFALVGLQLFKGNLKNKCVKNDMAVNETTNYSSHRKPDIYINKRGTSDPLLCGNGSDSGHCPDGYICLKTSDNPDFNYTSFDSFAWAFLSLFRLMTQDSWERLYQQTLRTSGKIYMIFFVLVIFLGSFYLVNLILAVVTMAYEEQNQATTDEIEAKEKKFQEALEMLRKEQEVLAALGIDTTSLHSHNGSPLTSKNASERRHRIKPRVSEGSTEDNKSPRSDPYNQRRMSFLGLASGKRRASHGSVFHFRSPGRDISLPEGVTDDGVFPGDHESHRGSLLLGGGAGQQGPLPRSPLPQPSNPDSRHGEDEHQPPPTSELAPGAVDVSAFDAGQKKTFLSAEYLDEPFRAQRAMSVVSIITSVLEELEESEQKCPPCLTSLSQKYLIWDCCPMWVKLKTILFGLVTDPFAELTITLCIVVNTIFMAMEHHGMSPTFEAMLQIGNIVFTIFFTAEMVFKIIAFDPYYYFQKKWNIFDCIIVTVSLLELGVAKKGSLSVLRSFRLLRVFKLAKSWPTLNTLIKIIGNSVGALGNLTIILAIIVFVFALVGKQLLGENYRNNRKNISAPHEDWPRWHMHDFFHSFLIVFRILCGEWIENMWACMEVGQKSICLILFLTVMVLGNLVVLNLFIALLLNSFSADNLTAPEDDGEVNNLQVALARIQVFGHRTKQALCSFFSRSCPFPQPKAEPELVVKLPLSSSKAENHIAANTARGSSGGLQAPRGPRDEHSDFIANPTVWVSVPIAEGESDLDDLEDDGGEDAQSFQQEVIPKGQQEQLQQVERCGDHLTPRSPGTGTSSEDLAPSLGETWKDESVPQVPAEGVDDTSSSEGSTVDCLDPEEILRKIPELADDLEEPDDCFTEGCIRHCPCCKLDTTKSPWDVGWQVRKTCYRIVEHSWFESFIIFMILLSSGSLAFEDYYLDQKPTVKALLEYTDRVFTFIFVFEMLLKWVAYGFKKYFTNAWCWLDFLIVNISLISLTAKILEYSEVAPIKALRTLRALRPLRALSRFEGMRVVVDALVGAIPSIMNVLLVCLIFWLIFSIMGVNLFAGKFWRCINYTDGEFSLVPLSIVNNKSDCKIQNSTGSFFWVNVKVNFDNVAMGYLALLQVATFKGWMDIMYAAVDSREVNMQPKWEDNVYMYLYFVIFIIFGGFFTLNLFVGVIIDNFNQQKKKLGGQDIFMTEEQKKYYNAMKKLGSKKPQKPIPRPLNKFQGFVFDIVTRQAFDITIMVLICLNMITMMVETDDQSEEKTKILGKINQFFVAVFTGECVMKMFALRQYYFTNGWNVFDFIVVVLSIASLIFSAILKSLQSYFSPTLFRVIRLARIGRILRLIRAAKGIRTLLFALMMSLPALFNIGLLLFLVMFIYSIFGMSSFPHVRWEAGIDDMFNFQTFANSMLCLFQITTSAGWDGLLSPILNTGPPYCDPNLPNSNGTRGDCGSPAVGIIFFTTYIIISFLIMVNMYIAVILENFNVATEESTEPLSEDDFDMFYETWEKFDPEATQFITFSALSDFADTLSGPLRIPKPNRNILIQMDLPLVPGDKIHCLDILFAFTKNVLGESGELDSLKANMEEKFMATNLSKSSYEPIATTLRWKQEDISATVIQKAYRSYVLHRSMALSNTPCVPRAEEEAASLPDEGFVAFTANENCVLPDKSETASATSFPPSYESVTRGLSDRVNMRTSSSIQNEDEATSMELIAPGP

`COc1cc(/C=N/NC(=O)c2cccc(-c3ccc(Cl)cc3)n2)cc(OC)c1` [US20240335420, Compound 10]: the pIC50 is 5.86 in assay [1] and 6.44 in assay [2].
As to `O=C(N/N=C/c1cccs1)c1ccc(-c2ccc(Cl)cc2)o1` [US20240335420, Compound 1], the pIC50 in assay [1] and in assay [2] was under 4.52 throughout.

The values are drawn from BindingDB's records for patent US20240335420 (Eurofarma, 2024).
